Source: US20170119742A1, “MEDICAMENT FOR PREVENTING AND/OR TREATING STRESS DISEASES” (ONO PHARMACEUTICAL CO., LTD., priority 2014, published 2017)

How the values were obtained:
[1] = system: Wistar rats exposed to physical and mental stressors; assay: Antistress effect: stool weight excreted during restraint stressor load in rats; type: in vivo; settings: rat; for average stool wet weight: 2 h before 1 h restraint stressor, vehicle 1.79 g, normal 0.04 g
Method: Male Sic: Wistar rats (Japan SLC, Inc., at the time of use: 11 weeks old) was exposed to physical and mental stressors (Journal of Pharmacological Science, Vol. 104, p. 263-273, 2007). The vehicle (0.5 w/v % methylcellulose 400 cP solution) or the compound of the present invention (0.1, 0.3, 1 and 3 mg/kg) was orally administered. Two hours after the administration, the stressor load was started by putting the rat in a restraint stress cage (Natsume Seisakusho Co., Ltd.). The antistress effect was evaluated by measuring the stool weight which was excreted during the stressor load of 1 hour (n=12 in each group).

brain TSPO [2] = assay: Brain occupancy using PET in monkeys, [11C] PBR28; type: in vivo; settings: rhesus monkey PET, [11C] PBR28, oral
Method: Male rhesus monkeys (Hamri Co., Ltd., at the time of use: 5 to 8 kg) were used. The vehicle (0.5 w/v % methylcellulose 400 cP solution) or the compound of the present invention (0.3 to 30 mg/kg) was once orally administered to 3 rhesus monkeys. After 2 hours of the administration, a PET measurement using [^11C] PBR28 was performed in the following manner.
Measurement equipment: PET camera; SHR-7700 (Hamamatsu Photonics K.K.) Image reconstruction: SHR Control II program (Hamamatsu Photonics K.K.) Change over time in brain radioactivity concentration and calculation of distribution volume: PMOD programs (PMOD Technologies Ltd.) Measurement methods: 120 minutes blank measurement and 30 minutes transmission measurement were performed using 68Ge/68Ga calibration source. Next, [^11C] […]
The compound of the present invention (0.3 to 10 mg/kg) was orally administered twice daily for 3 days, once on day 4 to 3 rhesus monkeys. […] Brain TSPO occupancy relative to the distribution volume of the vehicle control group was calculated by calculating the distribution volume of the interest area (cerebellum, hippocampus, striatum, thalamus, occipital lobe, temporal lobe, frontal lobe and parietal lobe) from the brain radioactivity concentration time change of [^11C] PBR28 and arterial blood plasma radioactivity which was corrected in a non-metabolic rate.

brain TSPO [3] = biological target: T1, brain TSPO (Homo sapiens, UniProt P30536); assay: Prediction of brain TSPO occupancy in steady state, once daily in humans (Biological example 9); settings: trough concentration
T1 construct: from tissue; host or cells: living human brain (PET, healthy adults)
T1 sequence (P30536 whole entry): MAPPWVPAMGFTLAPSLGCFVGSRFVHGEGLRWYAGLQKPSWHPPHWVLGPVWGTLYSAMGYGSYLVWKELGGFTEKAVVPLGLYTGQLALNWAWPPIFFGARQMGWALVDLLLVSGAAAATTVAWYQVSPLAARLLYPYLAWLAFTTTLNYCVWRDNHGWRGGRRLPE
Source text: A transition in the plasma concentration of the compound of the present invention, in a steady state when administered once daily, was predicted.

SMILES: COc1cc(Cl)ccc1[C@H]1c2[nH]c3cccc(F)c3c2C2(CC2)CN1C(C)=O [the compound of the present invention, (1S)-2-acetyl-1-(4-chloro-2-methoxyphenyl)-5-fluoro-1,2,3,9-tetrahydrospiro[β-carboline-4,1′-cyclopropane]]
- average stool wet weight ([1]; 0.1 mg/kg oral): 1.48 g
- average stool wet weight ([1]; 0.3 mg/kg oral): 0.96 g
- average stool wet weight ([1]; 1 mg/kg oral): 0.60 g
- average stool wet weight ([1]; 3 mg/kg oral): 0.67 g
- effect on stool wet weight compared to the vehicle treated group ([1]; dose of 0.3, 1 and 3 mg/kg oral): significantly inhibit the stool wet weight
- plasma concentration at which brain TSPO occupancy reaches about 50% (brain TSPO [2]): about 70 ng/mL
- TSPO Occupancy (%) Predicted 5 percentile (brain TSPO [3]; dose 5 mg): 42.8%
- TSPO Occupancy (%) Predicted 95 percentile (brain TSPO [3]; dose 5 mg): 70.3%
- TSPO Occupancy (%) Predicted median (brain TSPO [3]; dose 5 mg): 57.4%
- TSPO Occupancy (%) Predicted 5 percentile (brain TSPO [3]; dose 10 mg): 59.8%
- TSPO Occupancy (%) Predicted 95 percentile (brain TSPO [3]; dose 10 mg): 82.3%
- TSPO Occupancy (%) Predicted median (brain TSPO [3]; dose 10 mg): 73.1%
- TSPO Occupancy (%) Predicted 5 percentile (brain TSPO [3]; dose 20 mg): 74.6%
- TSPO Occupancy (%) Predicted 95 percentile (brain TSPO [3]; dose 20 mg): 90.5%
- TSPO Occupancy (%) Predicted median (brain TSPO [3]; dose 20 mg): 84.4%
- TSPO Occupancy (%) Predicted 5 percentile (brain TSPO [3]; dose 30 mg): 81.6%
- TSPO Occupancy (%) Predicted 95 percentile (brain TSPO [3]; dose 30 mg): 93.4%
- TSPO Occupancy (%) Predicted median (brain TSPO [3]; dose 30 mg): 89.0%
- TSPO Occupancy (%) Predicted 5 percentile (brain TSPO [3]; dose 60 mg): 90.0%
- TSPO Occupancy (%) Predicted 95 percentile (brain TSPO [3]; dose 60 mg): 96.7%
- TSPO Occupancy (%) Predicted median (brain TSPO [3]; dose 60 mg): 94.2%
- TSPO Occupancy (%) Predicted 5 percentile (brain TSPO [3]; dose 100 mg): 95.3%
- TSPO Occupancy (%) Predicted 95 percentile (brain TSPO [3]; dose 100 mg): 98.4%
- TSPO Occupancy (%) Predicted median (brain TSPO [3]; dose 100 mg): 97.4%
